# Columns and labels:
# [1] = test system: sweet corn (cv. Silver Queen); test: Petri plate study: seed treatment, coleoptile emergence at 10° C.; type: in vivo; conditions: petri plates at 10° C.
# Description: (§1) For all seed treatments, 1 ppm active ingredient refers to 1 microgram active ingredient per gram of seed. For these studies, GA3, GA4/7, 6BA, or CPPU were each dispensed into a 15 ml centrifuge tube, and 2.5 ml of de-ionized water was then added to each tube. The solution was mixed on a vortex mixer and 0.25 ml of this solution was then placed in another 50 ml. centrifuge tube along with 10 grams of sweet corn seed (cv. Silver Queen) or field corn (cv. Hybrid 2652) seed and rotated 360° on a Labquake Rotissarie for 10 minutes to ensure proper seed coverage. To simulate commercial seed treatments, the amount of solutions was just sufficient to wet the seeds. Seeds were dried overnight in weigh boats.
# Petri plate studies: Each standard petri plate (100 mm×50 mm) contained 1 blue Anchor germination circle (3¼ inches in diameter) drenched with 7 ml of de-ionized water cooled to 10° C. Each treatment consisted of 4 petri plates of 10 seeds each. After plating, the petri plates were placed in a Nalgene plastic container cooled to 10° C. This in turn was incubated in a 10° C. growth chamber with a 16 hour light cycle for the duration of the study. Counts were made by visually examining each seed for radicle and coleoptile protrusion. […]
# [2] = test system: sweet corn (cv. Silver Queen); test: Pro-Mix study: seed treatment, coleoptile emergence and length at 10° C.; type: in vivo; conditions: ProMix at 10° C.
# Description: as §1
# Pro-Mix studies: Pro Mix potting media was cooled to 10° C. and then placed in a 20 inch×10 inch flat to a depth of 5 cm. A trough of twenty seeds/treatment were planted at a depth of 2 cm. Four trays of twenty seeds each were planted per treatment. The trays were incubated in a growth chamber set at 10° C., 16 hour light cycle. Corn emergence counts were made daily.
# Sweet corn (cv. Silver Queen) seeds were treated with solutions containing GA4/7, 6BA, or GA4/7 and 6BA, planted into ProMix soil, and held at 10° C. At 22 days after treatment, more seedlings from seeds treated with the combination treatment of GA4/7 and 6BA had emerged than seeds treated with 6BA or GA4/7 alone (Table 2).
# Sweet corn (cv. Silver Queen) seeds were treated with solutions containing GA3, 6BA, or GA3 and 6BA, planted into ProMix soil, and held at 10° C.
# [3] = test system: sweet corn (cv. Silver Queen); test: Pouch study: seed treatment, coleoptile and radicle growth at 10° C.; type: in vivo; conditions: 6BA 10 ppm, pouches at 10° C.
# Description: as §1, with “[…] Pouch studies: A CYG germination pouch was drenched with 17 ml of 10° C. de-ionized water. Three treated seeds” for “Seeds”, “placed” for “dried overnight”, “the trough of the germination paper, contained within the pouch. Pouches were placed in a Nalgene plastic container cooled to 10° C. The container was incubated in a 10° C. growth chamber with a 16 hour light cycle for the duration of the study. Seedling coleoptiles and radicles were measured by removing the seedling from the pouch and measuring with a ruler. […] The amount of applied is expressed as ppm or micrograms of compound per gram of seed. […]” for “weigh boats.”
# [4] = test system: hybrid field corn (Hybrid 2652); test: Petri plate study: seed treatment, coleoptile emergence at 10° C.; type: in vivo; conditions: 6BA 10 ppm, petri plates at 10° C.
# Description: For all seed treatments, 1 ppm active ingredient refers to 1 microgram active ingredient per gram of seed. For these studies, GA3, GA4/7, 6BA, or CPPU were each dispensed into a 15 ml centrifuge tube, and 2.5 ml of de-ionized water was then added to each tube. The solution was mixed on a vortex mixer and 0.25 ml of this solution was then placed in another 50 ml. centrifuge tube along with 10 grams of sweet corn seed (cv. Silver Queen) or field corn (cv. Hybrid 2652) seed and rotated 360° on a Labquake Rotissarie for 10 minutes to ensure proper seed coverage. To simulate commercial seed treatments, the amount of solutions was just sufficient to wet the seeds. […] Petri plate studies: Each standard petri plate (100 mm×50 mm) contained 1 blue Anchor germination circle (3¼ inches in diameter) drenched with 7 ml of de-ionized water cooled to 10° C. Each treatment consisted of 4 petri plates of 10 seeds each. After plating, the petri plates were placed in a Nalgene plastic container cooled to 10° C. This in turn was incubated in a 10° C. growth chamber with a 16 hour light cycle for the duration of the study. Counts were made by visually examining each seed for radicle and coleoptile protrusion. Hybrid field corn seeds (cv. Hybrid 2652) were treated with solutions containing GA4/7 or 6BA or combinations of GA4/7 and 6BA, plated onto wetted paper in a petri plate, and held at 10° C.
# [5] = test system: seedlings; test: Preliminary studies: seedling quality and radicle growth after seed treatment; type: in vivo, corn; conditions: high rates of 6BA (>10 ppm)
compound,measurement,setting,value
"O=C(Nc1ccccc1)Nc1ccnc(Cl)c1 [CPPU, 1-(2-chloro-4-pyridyl)-3-phenylurea]",Percent coleoptile emergence at 14 days after treatment,[1]; CPPU 1 ppm,0%
same,Percent coleoptile emergence at 14 days after treatment,[1]; CPPU 10 ppm,4%
"C=C1C[C@]23C[C@@]1(O)CC[C@H]2[C@@]12C=C[C@H](O)[C@@](C)(C(=O)O1)[C@H]2[C@@H]3C(=O)O [GA3, (1α,2β,4aα,4bβ,10β)-2,4a,7-trihydroxy-1-methyl-8-methylenegibb-3-ene-1,10-dicarboxylic acid 1,4a-lactone]",Percent coleoptile emergence at 21 days after treatment,[2]; GA3 100 ppm,1.2%
"c1ccc(CNc2ncnc3nc[nH]c23)cc1 [6BA, N^6-phenylmethyl-1H-purin-6-amine]",Coleoptile length (cm) at 22 days after treatment,[3],2.17 cm
same,Radicle length (cm) at 22 days after treatment,[3],2.78 cm
same,Percent coleoptile emergence at 21 days after treatment,[2]; 6BA 10 ppm,3.7%
same,Percent coleoptile emergence at 22 days after treatment,"[2]; 6BA 10 ppm, 22 days",6.2%
same,Coleoptile length above ground (mm) at 32 days after treatment,"[2]; 6BA 10 ppm, 32 days",17.1 mm
same,"Length of the emerged coleoptiles at 32 days after treatment, compared to the control","[2]; 6BA, 32 days",no significant effect compared to the control
same,Percent coleoptile emergence at 12 days after treatment,[4],32%
same,Radicle growth,[5],reduced radicle growth
same,Seedling quality,[5],substantially reduced seedling quality

# Reference: US8835353B2, “Germination acceleration” (Valent BioSciences Corporation, priority 2007, dated 2014)
